The results in this text go back to patent US8119624B2, “Fused phenyl amido heterocyclic compounds” (Pfizer Inc., priority 2006, dated 2012).

What is called pEC50 is −log10 of the EC50, conventionally taken in molar units.

This experiment concerns the target T1, Full-length glucokinase (beta cell isoform) (Homo sapiens, UniProt P35557).
T1 construct: Full-length glucokinase (beta cell isoform) was His-tagged at N-terminus; His tag (N); made in house
T1 sequence (P35557 1-465): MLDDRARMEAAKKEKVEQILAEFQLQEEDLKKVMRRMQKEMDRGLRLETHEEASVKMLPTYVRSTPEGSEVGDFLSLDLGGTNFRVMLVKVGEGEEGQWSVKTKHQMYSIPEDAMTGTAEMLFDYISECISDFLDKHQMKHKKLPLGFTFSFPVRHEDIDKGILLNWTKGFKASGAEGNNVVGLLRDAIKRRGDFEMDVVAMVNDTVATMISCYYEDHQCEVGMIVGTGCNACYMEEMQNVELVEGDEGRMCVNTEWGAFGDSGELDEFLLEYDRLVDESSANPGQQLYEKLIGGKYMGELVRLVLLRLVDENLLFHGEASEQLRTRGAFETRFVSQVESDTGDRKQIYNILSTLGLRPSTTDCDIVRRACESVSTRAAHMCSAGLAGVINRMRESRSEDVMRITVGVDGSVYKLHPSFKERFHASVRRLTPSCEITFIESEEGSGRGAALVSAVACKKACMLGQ
Description: Glucokinase biochemical assay (PK/LDH-coupled, NADH depletion at 340 nm): % activation, EC50, % max activation. To be noted: 5 mM glucose; for activation at 10 µM / % Activation at 10 uM: 10 uM compound, % Activation=(Va/Vo−1)×100; for activation at 10 µM: read-out: % Activation at 10 uM; for pEC50: GK activation, read-out: EC50; for Emax / % Max Activation: fitted maximum activation; for Emax: read-out: % Max Activation. As to the method: Full-length glucokinase (beta cell isoform) was His-tagged at N-terminus and purified by a Ni column followed by size exclusion chromatography. Glucose was obtained from Calbiochem, and other reagents were from Sigma.
All assays were performed in a Corning 96-well plate using Spectramax PLUS spectrophotometer (Molecular Devices) at room temperature. The final assay volume was 100 uL. The buffer conditions used in this assay were as follows: 50 mM HEPES, 5 mM glucose, 1 mM ATP, 2 mM MgCl2, 0.7mM NADH, 2 mM DTT, 1 Unit/mL PK/LDH, 0.2 mM phosphoenolpyruvate, 25 mM KCl. Tested compound in DMSO solution was added to the buffer and mixed well by a plate shaker for 1 minute. The final concentration of DMSO introduced into the assay was 1%.
Glucokinase was added to the buffer mixture to initiate the reaction in the presence and absence of compound. Reaction was monitored by absorbance at 340nm due to the depletion of NADH. The initial reaction velocity was measured by the slope of a linear time course of 200-900 sec.
The percentage of activation was calculated by the following equation: % Activation=(Va/Vo−1)×100;
wherein each of Va and Vo is defined as the initial reaction velocity in the presence and absence of the tested compound, respectively.
The GK activities were measured as a function of compound concentrations.

pEC50: −log10 of the molar value.

As for `Cc1cc(NC(=O)c2cc(Oc3ccc(S(C)(=O)=O)cc3)c3c(c2)OC(C)(C)C3)no1` [Example 25, 4-(4-Methanesulfonyl-phenoxy)-2,2-dimethyl-2,3-dihydro-benzofuran-6-carboxylic acid(5-methyl-isoxazol-3-yl)-amide], the activation at 10 µM came out at 102%, the pEC50 is 5.89 and the Emax came to 116%.

Take `CC1(C)Cc2c(Oc3ccc(S(C)(=O)=O)cc3)cc(C(=O)Nc3ccon3)cc2O1` [Example 26, 4-(4-Methanesulfonyl-phenoxy)-2,2-dimethyl-2,3-dihydro-benzofuran-6-carboxylic acid isoxazol-3-ylamide]: the activation at 10 µM was determined as 197%, the pEC50 is 6.40 and the Emax was found to be 200%.

Turning to `CCc1nnc(NC(=O)c2cc(Oc3ccc(S(C)(=O)=O)cc3)c3c(c2)OC(C)(C)C3)s1` [Example 27, 4-(4-Methanesulfonyl-phenoxy)-2,2-dimethyl-2,3-dihydro-benzofuran-6-carboxylic acid(5-ethyl-[1,3,4]thiadiazol-2-yl)-amide], the activation at 10 µM is 112%, the pEC50 is 5.96 and the Emax worked out at 112%.

Regarding `CC1(C)Cc2c(Oc3ccc(S(C)(=O)=O)cc3)cc(C(=O)Nc3nnc(C4CC4)s3)cc2O1` [Example 28, 4-(4-Methanesulfonyl-phenoxy)-2,2-dimethyl-2,3-dihydro-benzofuran-6-carboxylic acid(5-cyclopropyl-[1,3,4]thiadiazol-2-yl)-amide], the activation at 10 µM turned out to be 123%, the pEC50 was 5.70 and the Emax turned out to be 158%.

`CCn1ncc(NC(=O)c2cc(Oc3ccc(S(C)(=O)=O)cc3)c3c(c2)OC(C)(C)C3)n1` [Example 29, 4-(4-Methanesulfonyl-phenoxy)-2,2-dimethyl-2,3-dihydro-benzofuran-6-carboxylic acid(2-ethyl-2H-[1,2,3]triazol-4-yl)-amide]: the activation at 10 µM was 284%, the pEC50 was 6.60 and the Emax was determined as 255%.

As for `COCc1nnc(NC(=O)c2cc(Oc3ccc(S(C)(=O)=O)cc3)c3c(c2)OC(C)(C)C3)s1` [Example 30, 4-(4-Methanesulfonyl-phenoxy)-2,2-dimethyl-2,3-dihydro-benzofuran-6-carboxylic acid(5-methoxymethyl-[1,3,4]thiadiazol-2-yl)-amide], the activation at 10 µM was 144%, the pEC50 was 5.38 and the Emax was 183%.

As to `Cn1ccc(NC(=O)c2cc(Oc3ccc(C#N)cc3F)c3c(c2)OC(C)(C)C3)n1` [Example 31, 4-(4-Cyano-2-fluoro-phenoxy)-2,2-dimethyl-2,3-dihydro-benzofuran-6-carbo-xylic acid(1-methyl-1H-pyrazol-3-yl)-amide], the activation at 10 µM amounted to 135%, the pEC50 is 5.68 and the Emax was 153%.

As to `Cn1ccc(NC(=O)c2cc(Oc3ccc(C(=O)N4CCC4)cc3F)c3c(c2)OC(C)(C)C3)n1` [Example 32, 4-[4-(Azetidine-1-carbonyl)-2-fluoro-phenoxy]-2,2-dimethyl-2,3-dihydro-benzo-furan-6-carboxylic acid(1-methyl-1H-pyrazol-3-yl)-amide], the activation at 10 µM came out at 164%, the pEC50 is 6.68 and the Emax came to 177%.

As for `Cn1ccc(NC(=O)c2cc(Oc3ccc(C(=O)N4CCC4)c(F)c3)c3c(c2)OC(C)(C)C3)n1` [Example 33, 4-[4-(Azetidine-1-carbonyl)-3-fluoro-phenoxy]-2,2-dimethyl-2,3-dihydro-benzofuran-6-carboxylic acid(1-methyl-1H-pyrazol-3-yl)-amide], the “% Activation at 10 uM” value is 170%, the pEC50 was 7.18 and the “% Max Activation” value came to 171%.

For the molecule `Cn1ccc(NC(=O)c2cc(Oc3cc(F)ccc3C(=O)N3CCC3)c3c(c2)OC(C)(C)C3)n1` [Example 34, 4-[2-(Azetidine-1-carbonyl)-5-fluoro-phenoxy]-2,2-dimethyl-2,3-dihydro-benzofuran-6-carboxylic acid(1-methyl-1H-pyrazol-3-yl)-amide], the activation at 10 µM turned out to be 75.1% and the pEC50 is under 5.00.

With `Cn1ccc(NC(=O)c2cc(Oc3ccc(C(=O)N4CCC4)cc3)c3c(c2)OC(C)(C)C3)n1` [Example 35, 4-[4-(Azetidine-1-carbonyl)-phenoxy]-2,2-dimethyl-2,3-dihydro-benzofuran-6-carboxylic acid(1-methyl-1H-pyrazol-3-yl)-amide], the activation at 10 µM came to 145%, the pEC50 is 6.98 and the Emax came out at 145%.

As to `Cn1ccc(NC(=O)c2cc(Oc3cccc(S(C)(=O)=O)c3)c3c(c2)OC(C)(C)C3)n1` [Example 36, 4-(3-Methanesulfonyl-phenoxy)-2,2-dimethyl-2,3-dihydro-benzofuran-6-carboxylic acid(1-methyl-1H-pyrazol-3-yl)-amide], the activation at 10 µM was found to be 130%, the pEC50 was 5.96 and the Emax was determined as 149%.

As for `Cn1ccc(NC(=O)c2cc(Oc3cccc(C(=O)N4CCC4)c3)c3c(c2)OC(C)(C)C3)n1` [Example 37, 4-[3-(Azetidine-1-carbonyl)-phenoxy]-2,2-dimethyl-2,3-dihydro-benzofuran-6-carboxylic acid(1-methyl-1H-pyrazol-3-yl)-amide], the activation at 10 µM worked out at 107%, the pEC50 was 6.05 and the Emax turned out to be 143%.

For `Cn1ccc(NC(=O)c2cc(Oc3ccc(C(F)F)cc3)c3c(c2)OC(C)(C)C3)n1` [Example 38, 4-(4-Difluoromethyl-phenoxy)-2,2-dimethyl-2,3-dihydro-benzofuran-6-carboxylic acid(1-methyl-1H-pyrazol-3-yl)-amide], the activation at 10 µM amounted to 109%, the pEC50 is 5.62 and the Emax came out at 149%.

Take `CN(C)Cc1ccc(Oc2cc(C(=O)Nc3ccn(C)n3)cc3c2CC(C)(C)O3)c(F)c1` [Example 39, 4-(4-Dimethylaminomethyl-2-fluoro-phenoxy)-2,2-dimethyl-2,3-dihydro-benzofuran-6-carboxylic acid(1-methyl-1H-pyrazol-3-yl)-amide]: the activation at 10 µM came out at 105%, the pEC50 was 5.70 and the Emax came out at 133%.

Consider `Cn1ccc(NC(=O)c2cc(Oc3ccc(CO)cc3F)c3c(c2)OC(C)(C)C3)n1` [Example 40, 4-(2-Fluoro-4-hydroxymethyl-phenoxy)-2,2-dimethyl-2,3-dihydro-benzofuran-6-carboxylic acid(1-methyl-1H-pyrazol-3-yl)-amide], for which the “% Activation at 10 uM” value is reported as 109%, the pEC50 is 5.44 and the “% Max Activation” value is 150%.

On to `Cn1ccc(NC(=O)c2cc(Oc3ccc(C(=O)N4CCOCC4)cc3F)c3c(c2)OC(C)(C)C3)n1` [Example 41, 4-[2-Fluoro-4-(morpholine-4-carbonyl)-phenoxy]-2,2-dimethyl-2,3-dihydro-benzofuran-6-carboxylic acid(1-methyl-1H-pyrazol-3-yl)-amide], for which the activation at 10 µM was determined as 138%, the pEC50 is 5.85 and the Emax was determined as 141%.
